Measured values taken from patent publication US7273604B2, “Anti-asthmatic combinations comprising surface active phospholipids” (Britannia Pharmaceuticals Limited, priority 1998, dated 2007).
Values joined by “and” are separate entries in the source; they are usually repeats but may differ in a detail not shown here. Equal entries are not always repeated.

Tested on: bronchial epithelium
Test: Binding (adsorption) of 14C-labelled DPPC to bronchial epithelium sections, liquid scintillation counting
Parameters: species or system porcine
Description: • L-α-Phosphatidylcholine, 1,2-di[1-^14 C]palmitoyl in Toluene:Ethanol (1:1 v/v), 114 mCi/mmol, 50 μCi in 2 mL (CFA6O4 B36, Amersham) • L-α-Phosphatidylcholine, dipalmitoyl (C16:0) (P-6267, Sigma) • DL-α-Phosphatidyl-DL-glycerol, dipalmitoyl (C16:0) (P-5650, Sigma) • Egg Phosphatidylglycerol (Batch 24756, Macfarlan Smith, Ltd.) • Sodium Chloride, 0.9%, B.P. (Baxter Healthcare) • Calcium Chloride (C-4901, Sigma) • Toluene (T-4428, Sigma) • Ethanol, AnalaR (10107.7Y, BDH) • NCS-II Tissue Solubilizer, 0.5N Solution (NNCS-502), Amersham) • OCS Organic Counting Scintillant (NOCS104, Amersham) In preparation for the dispersions in which the epithelium would be incubated, stock solutions of the phospholipid components were prepared on the first day of Run 1. These solutions were as follows: • L-α-DPPC, 2.4 mg. mL^−1 in toluene:ethanol, 1:1 • DL-α-DPPG, 3.0 mg. mL^−1 in toluene:ethanol, 1:1 • Egg PG, 3.0 mg. mL^−1 in toluene:ethanol, 1:1 All of the above solutions were stored at 4° C. in glass vials, the threads of which were sealed with teflon tape to minimise evaporation of the solvent. Each glass vial was then placed inside a second, tightly capped glass vial. These solutions were used for each of the five runs in the trial. A solution of 200 mg. L^−1 CaCl^2 in 0.9% saline was also prepared on the first day of Run 2 and was used in each of Runs 2 to 5. […]
Four dispersions were prepared on the first day of each run. […] In addition, Group 2 received 5.5 μL (16.5 μg) DL-α-DPPG, while the same quantity of egg PG was added to Group 3. […] When the number of sections was increased, the volumes of all components were increased accordingly, keeping all quantities in the same proportions as above. […]

| Total DPPC Adsorbed to Bronchial Epithelium, Mean (mean of n 10 sections, incubation at 37° C. for 24 h in 0.9% saline dispersion, rinsed 20 times) [μg/cm^2] | SMILES | binding of DPPC to bronchial epithelium (in words) (DPPC in the presence of the named phosphatidyl glycerol, 1:1, compared with DPPC only) | Total DPPC Adsorbed to Bronchial Epithelium (individual sections, incubation at 37° C. for 24 h in 0.9% saline dispersion, rinsed 20 times) |
| --- | --- | --- | --- |
|  | CCCCCCCCCCCCCCCC(=O)OCC(COP(=O)(O)OCC(O)CO)OC(=O)CCCCCCCCCCCCCCC (racemic) [DPPG, DL-α-Phosphatidyl-DL-glycerol, dipalmitoyl (C16:0)] | increased binding of DPPC to bronchial epithelium |  |
| 0.291 | CCCCCCCCCCCCCCCC(=O)OC[C@H](COP(=O)([O-])OCC[N+](C)(C)C)OC(=O)CCCCCCCCCCCCCCC [DPPC, dipalmitoyl phosphatidyl choline] |  | 0.280 μg/cm^2 and 0.528 μg/cm^2 and 0.192 μg/cm^2 and 0.340 μg/cm^2 and 0.321 μg/cm^2 and 0.341 μg/cm^2 and 0.299 μg/cm^2 and 0.219 μg/cm^2 and 0.116 μg/cm^2 and 0.276 μg/cm^2 |
